Patent publication US20240208992A1, “MACROCYCLES AS CFTR MODULATORS” (Idorsia Pharmaceuticals Ltd, priority 2021, published 2024)

Biological target: human F508del-CFTR (Homo sapiens, UniProt P13569, DEL508-508)
Assay: F508del-CFTR cell surface expression (corrector activity), DiscoveRx ß-galactosidase complementation chemiluminescence assay in recombinant U2OS cell line;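 note: U2OS cells co-expressing ProLink-tagged F508del-CFTR and a membrane-anchored enzyme acceptor, where more surface CFTR restores β-galactosidase activity measured by chemiluminescence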
Conditions: for EC50: EC50, F508del-CFTR cell surface expression; for Emax: U2OS
[1] = U2OS cell line, 16h compound incubation, geomean values
[2] = in relation to the Emax of the corrector lumacaftor (=100%), U2OS cell line, 16h compound incubation, arithmetic mean values
[3] = U2OS cells, 16h compound incubation, geomean of several measurements
[4] = in relation to the Emax of the corrector lumacaftor (=100%), U2OS cells, 16h compound incubation, arithmetic mean
[5] = U2OS cells, 16h compound incubation, geomean values
[6] = in relation to Emax of corrector lumacaftor (=100%), arithmetic mean values

human F508del-CFTR, sequence (P13569 with tags, fused parts or gaps DEL508-508): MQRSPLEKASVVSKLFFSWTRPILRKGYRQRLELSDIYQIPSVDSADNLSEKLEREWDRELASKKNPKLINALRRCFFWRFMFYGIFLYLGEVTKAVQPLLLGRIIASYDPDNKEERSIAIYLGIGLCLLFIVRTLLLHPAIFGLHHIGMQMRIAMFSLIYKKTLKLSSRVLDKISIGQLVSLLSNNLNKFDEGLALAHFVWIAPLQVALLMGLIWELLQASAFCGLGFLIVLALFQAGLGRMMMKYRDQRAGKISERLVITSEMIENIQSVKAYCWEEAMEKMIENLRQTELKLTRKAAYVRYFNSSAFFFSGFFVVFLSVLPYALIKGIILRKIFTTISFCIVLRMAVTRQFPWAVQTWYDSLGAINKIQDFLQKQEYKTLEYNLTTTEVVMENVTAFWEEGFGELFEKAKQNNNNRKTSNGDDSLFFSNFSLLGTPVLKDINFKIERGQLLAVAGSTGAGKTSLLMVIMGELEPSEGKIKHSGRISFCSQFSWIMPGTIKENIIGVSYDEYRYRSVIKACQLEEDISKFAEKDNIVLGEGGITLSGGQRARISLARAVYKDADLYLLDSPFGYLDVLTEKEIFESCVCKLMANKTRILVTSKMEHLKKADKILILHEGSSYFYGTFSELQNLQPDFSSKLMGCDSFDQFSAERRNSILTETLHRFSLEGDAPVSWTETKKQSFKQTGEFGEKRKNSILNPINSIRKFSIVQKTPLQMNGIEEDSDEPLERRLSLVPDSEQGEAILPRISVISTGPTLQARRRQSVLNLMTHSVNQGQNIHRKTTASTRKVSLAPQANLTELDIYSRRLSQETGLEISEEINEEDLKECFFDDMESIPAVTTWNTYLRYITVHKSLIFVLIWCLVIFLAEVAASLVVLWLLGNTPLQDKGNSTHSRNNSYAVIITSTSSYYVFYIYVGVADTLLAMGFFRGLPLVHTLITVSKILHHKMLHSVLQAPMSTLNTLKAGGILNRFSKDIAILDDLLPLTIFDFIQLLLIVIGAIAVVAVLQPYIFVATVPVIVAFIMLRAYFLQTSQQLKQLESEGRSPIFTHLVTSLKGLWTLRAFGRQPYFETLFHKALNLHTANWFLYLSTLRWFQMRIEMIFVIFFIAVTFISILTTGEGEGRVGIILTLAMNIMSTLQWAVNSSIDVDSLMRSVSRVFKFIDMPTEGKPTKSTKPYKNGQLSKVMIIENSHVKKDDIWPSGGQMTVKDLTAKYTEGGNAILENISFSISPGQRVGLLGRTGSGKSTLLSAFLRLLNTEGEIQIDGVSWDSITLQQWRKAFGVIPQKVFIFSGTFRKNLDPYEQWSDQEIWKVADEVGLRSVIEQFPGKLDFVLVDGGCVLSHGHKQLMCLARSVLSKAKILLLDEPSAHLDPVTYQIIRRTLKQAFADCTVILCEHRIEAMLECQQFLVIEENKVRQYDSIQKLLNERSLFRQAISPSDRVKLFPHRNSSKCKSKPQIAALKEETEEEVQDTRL

SMILES | EC50 [1] [µM] | Emax [2] [%] | EC50 [5] [µM] | Emax [6] [%] | other results
CC(C)C[C@H]1C(=O)N(CCC2CCC3(CCOCC3)CO2)CC(=O)N[C@H](Cc2ccccc2)COc2ccc3ccccc3c2C(=O)N[C@H](C(=O)NCCc2ccc3c(c2)OCO3)CC(=O)N1C (stereo partly drawn) [Example 334, (3S,7S,13R)-9-(2-(2,9-dioxaspiro[5.5]undecan-3-yl)ethyl)-N-(2-(benzo[d][1,3]dioxol-5-yl)ethyl)-13-benzyl-7-isobutyl-6-methyl-1,5,8,11-tetraoxo-1,2,3,4,5,6,7,8,9,10,11,12,13,14-tetradecahydronaphtho[1,2-p][1]oxa[4,7,10,14]tetraazacycloheptadecine-3-carboxamide] | 0.323 | 232 |  |  | 
COc1cc(CCNC(=O)[C@@H]2CC(=O)N(C)[C@@H](CC(C)C)C(=O)N(C)[C@H](Cc3nc(C(F)(F)F)no3)C(=O)N[C@H](Cc3ccccc3)COc3cnc4ccc(F)cc4c3C(=O)N2)on1 [Example 809, (3S,7S,10R,13R)-13-benzyl-20-fluoro-7-isobutyl-N-(2-(3-methoxyisoxazol-5-yl)ethyl)-6,9-dimethyl-1,5,8,11-tetraoxo-10-((3-(trifluoromethyl)-1,2,4-oxadiazol-5-yl)methyl)-1,2,3,4,5,6,7,8,9,10,11,12,13,14-tetradecahydro-[1]oxa[4,7,10,14]tetraazacycloheptadecino[17,16-c]quinoline-3-carboxamide] |  |  |  |  | EC50 [3]: 0.01 µM; Emax [4]: 391%
COc1cc(CCNC(=O)[C@@H]2CC(=O)N(C)[C@@H](CC(C)C)C(=O)N(C)[C@H](CC3CC3)C(=O)N[C@H](Cc3ccccc3)COc3cc(C)nc(OC)c3C(=O)N2)on1 [Example 979, (3R,6R,9S,13S)-3-benzyl-6-(cyclopropylmethyl)-9-isobutyl-16-methoxy-N-(2-(3-methoxyisoxazol-5-yl)ethyl)-7,10,18-trimethyl-5,8,11,15-tetraoxo-2,3,4,5,6,7,8,9,10,11,12,13,14,15-tetradecahydropyrido[3,4-p][1]oxa[4,7,10,14]tetraazacycloheptadecine-13-carboxamide] |  |  |  |  | EC50 [3]: 0.209 µM; Emax [4]: 394%
CC(C)C[C@H]1C(=O)N2CCOC[C@@H]2C(=O)N[C@H](Cc2ccccc2)COc2ccc3ccccc3c2C(=O)N[C@H](C(=O)NCCc2nc3c(s2)CCC3)CC(=O)N1C [Example 370, (4aR,7R,18S,22S)-7-benzyl-N-(2-(5,6-dihydro-4H-cyclopenta[d]thiazol-2-yl)ethyl)-22-isobutyl-21-methyl-5,16,20,23-tetraoxo-1,2,4,4a,5,6,7,8,16,17,18,19,20,21,22,23-hexadecahydronaphtho[1,2-p][1,4]oxazino[3,4-f][1]oxa[4,7,10,14]tetraazacycloheptadecine-18-carboxamide] | 0.388 | 229 |  |  | 
CC(C)C[C@H]1C(=O)N2CCN(C3CC3)C[C@H]2C(=O)N[C@H](Cc2ccccc2)COc2cnc3ccccc3c2C(=O)N[C@H](C(=O)NCCc2ccc3c(c2)OCO3)CC(=O)N1C [Example 392, (9S,13S,19aS,22R)-N-(2-(benzo[d][1,3]dioxol-5-yl)ethyl)-22-benzyl-18-cyclopropyl-13-isobutyl-12-methyl-7,11,14,20-tetraoxo-7,8,9,10,11,12,13,14,17,18,19,19a,20,21,22,23-hexadecahydro-16H-pyrazino[2′,1′:6,7][1]oxa[4,7,10,14]tetraazacycloheptadecino[17,16-c]quinoline-9-carboxamide] | 0.327 | 144 |  |  | 
CC(C)C[C@H]1C(=O)N2CCCC[C@H]2C(=O)N[C@H](Cc2ccccc2)COc2ccc3ncc(F)cc3c2C(=O)N[C@H](C(=O)NCCc2noc(C3CC3)n2)CC(=O)N1C [Example 793, (9S,13S,19aS,22R)-22-benzyl-N-(2-(5-cyclopropyl-1,2,4-oxadiazol-3-yl)ethyl)-5-fluoro-13-isobutyl-12-methyl-7,11,14,20-tetraoxo-7,8,9,10,11,12,13,14,17,18,19,19a,20,21,22,23-hexadecahydro-16H-pyrido[2′,11:6,7][1]oxa[4,7,10,14]tetraazacycloheptadecino[16,17-f]quinoline-9-carboxamide] |  |  | 0.235 | 105 | 
COc1cc2c(cn1)OC[C@@H](Cc1ccccc1)NC(=O)[C@@H]1CCCCN1C(=O)[C@H](CC(C)C)N(C)C(=O)C[C@@H](C(=O)NCCc1noc(C3CC3)n1)NC2=O (mixture of isomers) [Example 516, (7S,11S,17aRS,20R)-20-benzyl-N-(2-(5-cyclopropyl-1,2,4-oxadiazol-3-yl)ethyl)-11-isobutyl-3-methoxy-10-methyl-5,9,12,18-tetraoxo-5,6,7,8,9,10,11,12,15,16,17,17a,18,19,20,21-hexadecahydro-14H-dipyrido[2,1-f:4′,3′-p][1]oxa[4,7,10,14]tetraazacycloheptadecine-7-carboxamide] |  |  | 0.494 | 155 | 
CC(C)C[C@H]1C(=O)N2CCOC[C@@H]2C(=O)N[C@H](Cc2ccccc2)COc2cnc3c(F)cccc3c2C(=O)N[C@H](C(=O)NCCc2ccc3c(c2)OCCO3)CC(=O)N1C [Example 627, (9S,13S,19aR,22R)-22-benzyl-N-(2-(2,3-dihydrobenzo[b][1,4]dioxin-6-yl)ethyl)-3-fluoro-13-isobutyl-12-methyl-7,11,14,20-tetraoxo-7,8,9,10,11,12,13,14,16,17,19,19a,20,21,22,23-hexadecahydro-[1,4]oxazino[3′,4′:6,7][1]oxa[4,7,10,14]tetraazacycloheptadecino[17,16-c]quinoline-9-carboxamide] |  |  | 0.786 | 395 | 
COc1noc(CCNC(=O)[C@@H]2CC(=O)N(C)[C@@H](CC(C)C)C(=O)N(C)[C@H](CC(F)F)C(=O)N[C@H](Cc3ccccc3)COc3ccc4cnc(C)cc4c3C(=O)N2)c1F [Example 970, (3S,7S,10R,13R)-13-benzyl-10-(2,2-difluoroethyl)-N-(2-(4-fluoro-3-methoxyisoxazol-5-yl)ethyl)-7-isobutyl-6,9,20-trimethyl-1,5,8,11-tetraoxo-1,2,3,4,5,6,7,8,9,10,11,12,13,14-tetradecahydro-[1]oxa[4,7,10,14]tetraazacycloheptadecino[16,17-f]isoquinoline-3-carboxamide] |  |  |  |  | EC50 [3]: 0.109 µM; Emax [4]: 463%
COc1cccc2c1C(=O)N[C@H](C(=O)NCCCOC(F)F)CC(=O)N(C)[C@@H](CC(C)C)C(=O)N(CCC1CCCCC1)CC(=O)N[C@H](Cc1ccccc1)CO2 [Example 21, (3R,9S,13S)-3-benzyl-7-(2-cyclohexylethyl)-N-(3-(difluoromethoxy)propyl)-9-isobutyl-16-methoxy-10-methyl-5,8,11,15-tetraoxo-2,3,4,5,6,7,8,9,10,11,12,13,14,15-tetradecahydrobenzo[p][1]oxa[4,7,10,14]tetraazacycloheptadecine-13-carboxamide] | 0.35 | 108 |  |  | 
COc1cccc2c1C(=O)N[C@H](C(=O)NCCc1cncnc1)CC(=O)N(C)[C@@H](CC(C)C)C(=O)N(CCC1CCCCC1)CC(=O)N[C@H](Cc1ccccc1)CO2 [Example 20, (3R,9S,13S)-3-benzyl-7-(2-cyclohexylethyl)-9-isobutyl-16-methoxy-10-methyl-5,8,11,15-tetraoxo-N-(2-(pyrimidin-5-yl)ethyl)-2,3,4,5,6,7,8,9,10,11,12,13,14,15-tetradecahydrobenzo[p][1]oxa[4,7,10,14]tetraazacycloheptadecine-13-carboxamide] | 0.721 | 102 |  |  | 
COc1nccc2c1C(=O)N[C@H](C(=O)NCCc1cc(C3CC3)on1)CC(=O)N(C)[C@@H](CC(C)C)C(=O)N1CCCC[C@@H]1C(=O)N[C@H](Cc1ccccc1)CO2 [Example 512, (7S,11S,17aR,20R)-20-benzyl-N-(2-(5-cyclopropylisoxazol-3-yl)ethyl)-11-isobutyl-4-methoxy-10-methyl-5,9,12,18-tetraoxo-5,6,7,8,9,10,11,12,15,16,17,17a,18,19,20,21-hexadecahydro-14H-dipyrido[2,1-f:3′,4′-p][1]oxa[4,7,10,14]tetraazacycloheptadecine-7-carboxamide] |  |  | 0.3 | 316 | 
CC(C)C[C@H]1C(=O)N2CCCC[C@@H]2C(=O)N[C@H](Cc2ccccc2)COc2ccncc2C(=O)N[C@H](C(=O)NCCc2ccc3c(c2)OCCO3)CC(=O)N1C [Example 594, (7S,11S,17aR,20R)-20-benzyl-N-(2-(2,3-dihydrobenzo[b][1,4]dioxin-6-yl)ethyl)-11-isobutyl-10-methyl-5,9,12,18-tetraoxo-5,6,7,8,9,10,11,12,15,16,17,17a,18,19,20,21-hexadecahydro-14H-dipyrido[2,1-f:3′,4′-p][1]oxa[4,7,10,14]tetraazacycloheptadecine-7-carboxamide] |  |  | 0.81 | 171 | 
COc1cc(F)c(CCNC(=O)[C@@H]2CC(=O)N(C)[C@@H](CC(C)C)C(=O)N3CCCC[C@@H]3C(=O)N[C@H](Cc3ccccc3)COc3cnc4ccccc4c3C(=O)N2)c(F)c1 [Example 74, (9S,13S,19aR,22R)-22-benzyl-N-(2,6-difluoro-4-methoxyphenethyl)-13-isobutyl-12-methyl-7,11,14,20-tetraoxo-7,8,9,10,11,12,13,14,17,18,19,19a,20,21,22,23-hexadecahydro-16H-pyrido[2′,1′:6,7][1]oxa[4,7,10,14]tetraazacycloheptadecino[17,16-c]quinoline-9-carboxamide] | 0.128 | 271 |  |  | 
Cc1cc2c3c(ccc2cn1)OC[C@@H](Cc1ccccc1)NC(=O)[C@@H](CC(F)(F)F)N(C)C(=O)[C@H](CC(C)C)N(C)C(=O)C[C@@H](C(=O)NCCn1nnc(C2CC2)n1)NC3=O [Example 959, (3S,7S,10R,13R)-13-benzyl-N-(2-(5-cyclopropyl-2H-tetrazol-2-yl)ethyl)-7-isobutyl-6,9,20-trimethyl-1,5,8,11-tetraoxo-10-(2,2,2-trifluoroethyl)-1,2,3,4,5,6,7,8,9,10,11,12,13,14-tetradecahydro-[1]oxa[4,7,10,14]tetraazacycloheptadecino[16,17-f]isoquinoline-3-carboxamide] |  |  |  |  | EC50 [3]: 0.222 µM; Emax [4]: 413%
